From paper PMC9427252, “Study on the Absorption of Arsenic Species in Realgar Based on the Form and Valence” (Evidence-based Complementary and Alternative Medicine : eCAM, 2022) come the findings set out here.

Read-outs that look alike come from different tables or passages of the source. A value given as a limit tells only on which side of the number the result lay.

One data set has as its system Caco-2 cells. Conditions: A to B, realgar artificial intestinal dissolved solution.
In data set [1] the test system is duodenum, jejunum, and ileum.
Setting [2] is: rat plasma, oral 0.1 g/kg realgar.

Take `O[As](O)O` [AsIII, Arsenite]: the “MRT(0-∞)” value (rat, in vivo, po, 0.1 g/kg) stood at 9.649 h.
With `O=[As](O)(O)O` [AsV, Arsenate], the Cumulative transport amount turned out to be 0.23 ± 0.07 ng with Caco-2 cells (30 min); 0.41 ± 0.06 ng in the data set on Caco-2 cells (60 min); 1.01 ± 0.16 ng in the data set on Caco-2 cells (90 min); 0.84 ± 0.02 ng with Caco-2 cells (120 min); 1.20 ± 0.15 ng with Caco-2 cells (180 min). Moreover, the Cout/Cin in data set [1] (duodenum and jejunum) is given as over 1; in data set [1] (ileum) it was under 1; in data set [1] (realgar intestinal perfusate, duodenum, time 15), 3.14 ± 0.81; in data set [1] (realgar intestinal perfusate, duodenum, time 30), 3.16 ± 0.91; in data set [1] (realgar intestinal perfusate, duodenum, time 45), 3.01 ± 0.96; in data set [1] (realgar intestinal perfusate, duodenum, time 60), 3.20 ± 1.04. The Cout/Cin in data set [1] (realgar intestinal perfusate, duodenum, time 75) amounted to 3.17 ± 0.86; in data set [1] (realgar intestinal perfusate, ileum, time 15), 0.78 ± 0.11; in data set [1] (realgar intestinal perfusate, ileum, time 30), 0.77 ± 0.10; in data set [1] (realgar intestinal perfusate, ileum, time 45), 0.76 ± 0.12; in data set [1] (realgar intestinal perfusate, ileum, time 60), 0.78 ± 0.11; in data set [1] (realgar intestinal perfusate, ileum, time 75), 0.80 ± 0.13. Also, the Cout/Cin in data set [1] (realgar intestinal perfusate, jejunum, time 15) is 1.54 ± 0.46; in data set [1] (realgar intestinal perfusate, jejunum, time 30), 1.46 ± 0.39; in data set [1] (realgar intestinal perfusate, jejunum, time 45), 1.50 ± 0.28; in data set [1] (realgar intestinal perfusate, jejunum, time 60), 1.34 ± 0.25; in data set [1] (realgar intestinal perfusate, jejunum, time 75), 1.28 ± 0.24. In addition, the “AUC(0-24)” value under setting [2] amounted to 47.310 ng·h/mL. Further, the “AUC(0-∞)” value under setting [2] is 47.687 ng·h/mL. Besides, under setting [2], the Cmax was found to be 0.021626 ng/mL. Under setting [2], the “MRT(0-∞)” value turned out to be 2.790 h. The Tmax under setting [2] stood at 0.393 h. This molecule had a t1/2 under setting [2] of 1.775 h.

As a reminder, the Cmax is the peak of the concentration-time curve. Broadly, the Tmax is the time from dosing to the highest level.
